{
  "source": "paper PMC3436892",
  "about": "“Novel African Trypanocidal Agents: Membrane Rigidifying Peptides” (PLoS ONE, 2012)",
  "key": {"[1]": {"system": "Live BSF T. b. brucei", "experiment": "Trypanosome motility scoring by DIC microscopy", "type": "cell-based, Trypanosoma brucei brucei", "conditions": "40 µM SHP, 37°C, 1×10^7 cells/mL, HMI 9 with 10 % fetal bovine serum, DIC microscopy, at least duplicate (Fig. 2d)", "protocol": "All images and videos were acquired with an Axio Observer Z1 equipped with an AxioCam MRm controlled by AxioVision 4.6 software. Videos were acquired with live cells at a density of 1×10^7 cells/mL in HMI 9 media with 10 % fetal bovine serum, incubated with 40 µM SHP at 37°C. Trypanosomes were visualized at magnification 63 × and videos were recorded with 100-ms acquisition times. The motility of BSF trypanosomes was scored directly or from video playback. Trypanosome motility was classified as normal, hyperactive or constricted as described previously. An example of a trypanosome scored as normal is shown in Movie S1. […] Data in figure 2D is shown as the average of at least duplicate trials with standard deviations."}, "[2]": {"experiment": "Parallax analysis of tryptophan penetration depth", "type": "physicochemical", "conditions": "500 nM peptide, PBS, 37°C, 22 h", "protocol": "The hydrocarbon penetration depth of tryptophans spaced throughout synthetic peptides corresponding to SHP-1 or SHP-3 (Table S1) was determined by parallax analysis with brominated phosphatidylcholine liposomes. Large unilamellar liposomes composed of egg phosphatidylcholine and 10 mol % 1-palmitoyl-2-(6,7-dibromo)stearoyl-sn-glycero-3-phosphocholine (shallow quencher) or 1-palmitoyl-2-(9,10-dibromo)stearoyl-sn-glycero-3-phosphocholine (deep quencher) were constructed by hydration of a thin dry lipid film with phosphate buffered saline. Resulting multilamellar liposomes were made unilameller via extrusion through polycarbonate filters with 0.1 µm pores. Peptides (500 nM) were incubated with 200 µg/ml liposomes in phosphate buffered saline at 37°C for 22 h. Tryptophan fluorescence at 357 nm was measured from at least triplicate trials in the PerkinElmer Life Sciences LS55 spectrofluorometer and an excitation wavelength of 280 nm for SHP-1 and 290 nm for SHP-2, 10 nm excitation and 9 nm emission slit widths. The distance of tryptophans from the bilayer center (ZCF) is calculated from the equation [12]: [drawing 1] Where LC1 is the distance from the center of the bilayer to the shallow quencher, in this case 10.8 Å for 6,7-dibromo-PC [25], F1 is the intensity of tryptophan in the presence of the shallow quencher and F2 is the tryptophan intensity in the presence of the deep quencher, C is the mole fraction of quencher divided by the area of individual phospholipid (70 Å^2), and L21 is the difference in the depth of the two quenchers (2.7 Å). The hydrocarbon insertion depth of tryptophans is then given by one half the bilayer thickness, 29 Å [25], minus ZCF."}, "[3]": {"system": "metacyclic T. b. brucei", "experiment": "2 h in vitro killing assay, metacyclic form", "type": "cell-based, Trypanosoma brucei brucei strain STIB247", "conditions": "2 h incubation, 1×10^4 cells/mL, HMI 9 with 10 % fetal bovine serum, live cells scored by hemocytometer, at least duplicate (Fig. 1a)", "protocol": "Light microscopy based trypanosome killing assays were performed as previously described in detail, [10], [21], [22]. Metacyclic Trypanosoma brucei brucei strain STIB247 were obtained from dissection of the salivary glands of infected tsetse flies. Newly hatched Glossina morsitans morsitans (24–48 h post eclosion) were fed two defibrinated horse blood meals containing 2×10^6 mL^-1 trypanosomes on two separate days. Flies were then maintained at 25°C in 75 % relative humidity and fed maintenance blood meals three times per week. Following day 20–30, flies were harvested and salivary glands were dissected out and placed into HMI 9 media containing 10 % fetal bovine serum for 30 minutes. Metacyclic cells were expelled into the media by the residual peristalsis of the salivary glands. Cells were collected via centrifugation and maintained in HMI 9 media with 20 % fetal bovine serum at 37°C in 5 % CO2 until use. Killing assays were conducted with 1×10^4 cells/mL in HMI 9 media containing 10 % fetal bovine serum. Live cells were scored via hemocytometer after 2 h incubation. Trypanosoma vivax strain ILRAD V34 and Trypanosoma congolense strain IL3000 were grown from stabilites in donor ICR mouse (Harlan, United Kingdom). […] Cells were incubated at 37°C for 2 h and live cells were scored visually via hemocytometer. […]"}},
  "data": [
    {"sequence": "SDLGAVISLLLWGRQLFA [SHP-1, trypanocidal small hydrophobic peptide derived from an apolipoprotein, with characteristics of a secretory signal peptide]", "values": [
      {"measurement": "constriction of motility following hyperactivation", "setting": "[1]", "value": "subsequent constriction"},
      {"measurement": "hyperactivation of motility", "setting": "[1]", "value": "hyperactivation"},
      {"measurement": "distance of tryptophan at position 1 from the membrane interface", "setting": "[2]; Trp-substituted variant W1, 200 µg/ml egg PC liposomes with 10 mol % 6,7- or 9,10-dibromo-PC, bilayer thickness 29 Å, at least triplicate", "value": "approximately 1.1 Å"},
      {"measurement": "distance of tryptophan at position 8 from the membrane interface", "setting": "[2]; Trp-substituted variant W8, 200 µg/ml brominated egg PC liposomes", "value": "approximately 7.8 Å"},
      {"measurement": "distance of tryptophan at position 18 from the membrane interface", "setting": "[2]; Trp-substituted variant W18, 200 µg/ml brominated egg PC liposomes", "value": "~2.0", "unit": "Å"},
      {"measurement": "distance of tryptophan at position 12 from the membrane interface", "setting": "[2]; native tryptophan, 200 µg/ml brominated egg PC liposomes", "value": "~5.1", "unit": "Å"},
      {"measurement": "F1/F2 ± S.D.", "setting": "[2]; ratio of tryptophan fluorescence intensity (357 nm) with shallow (6,7-dibromo-PC, F1) and deep (9,10-dibromo-PC, F2) quencher, 200 µg/ml liposomes, at least triplicate", "value": "0.9676 ± 0.0560"},
      {"measurement": "killing activity against metacyclic T. b. brucei", "setting": "[3]", "value": "no killing activity"}
    ]}
  ]
}
